Legend:
DoHH2 cells = system: DoHH2 cells
Experimental: The mice were divided into two groups, the first considered the “control” (N=7) and the second the chemotherapy or “chemo” (N=8) group. […] Following an initial scan to determine baseline stiffness, the control group received an injection of normal saline while the chemo group received 4 mg of cyclophosphamide (160 mg/kg). MRE was performed on each mouse using an experimental setup specifically designed to accommodate the mouse and providing the mouse with the requisite anesthesia, via a constant flow of isofluorane during the image acquisition. MRE was performed at different time points (baseline to 4 days post-injection). The experimental setup included a high-frequency electromechanical driver that was developed to produce localized vibrations in the tumor within the mouse at a frequency of 800 Hz. All experiments were performed on a 3.0 T whole-body MRI scanner using a specialized 6-cm diameter transmit-receive RF coil and an EPI based MRE sequence. The MRE imaging parameters included FOV=5 cm; TRITE=1100/99 msec; motion encoding gradient (MEG) frequency=800 Hz; MEG direction=SI, AP, RL; motion encoding sensitivity=3.98 μm/(π radians); BW=83.0 kHz. Volumetric measurements were obtained using both a caliper and measurements from a T2-weighted image data set in order to quantify treatment response. Elastograms (stiffness maps) were calculated using a Multiple Model Direct Inversion (MMDI) algorithm with a directional filter (Butterworth bandpass filter with cutoff frequencies 2-128 waves/FOV).

Excerpt for DoHH2 tumor cells: The process 230 starts at process block 232 with either the positioning of the subject in the bore of an MRI system and the coupling of an MRE drive or the positioning of an ex viva sample within an MRE system. […] Thus, the step of positioning the subject for imaging at process block 232 may be initiated within hours to days after the completion of chemotherapy, instead of weeks later, as required in traditional assessment techniques. Once the subject is positioned for MRE imaging, using a high-frequency pulse sequence, such as the example sequence described with respect to FIG. 3, raw MRE data is collected from the subject or sample at process block 234.
After the raw MRE data is collected at process block 234, the data is pre-processed at process block 236. Pre-processing may include minimum discontinuity phase unwrapping, 2-dimensional filtering along, for example, eight evenly spaced directions in the imaging plane and 2-dimensional order-4 Butterworth bandpass filtering with cutoff wave numbers of 1 and 80 waves/FOV. Then, at process block 238, a 2-D phase gradient inversion is used to process the preprocessed data and produce elastograms. The phase gradient inversion may be done, for example, with a 5×5 window. Using the elastograms, at process block 240, regions of interest (ROIs) can be drawn on the tumor where wave penetration and phase signal to noise ratio were visually acceptable. Using the selected ROIs, the mean stiffness values in these regions of interest can then be measured for each slice, at process block 242, and the average of these values can then be reported as a stiffness value of tumors, at process block 244. Using this information, a determination of the response of the tumor to the chemotherapy can be determined.
The tumor cells were maintained in RPMI 1640 medium supplemented with 10% heat-inactivated FCS (Sigma Chemical Co.), 50 U/ml penicillin G, 50 μg/ml gentamicin and 100 μg/ml streptomycin (all from Ufe Technologies, Grand Island, N.Y., USA) with the addition of 10 mM HEPES, 4.5 g/l glucose and 1 mM sodium pyruvate. […]

O=P1(N(CCCl)CCCl)NCCCO1 (stereo not drawn) [cyclophosphamide]
tumor stiffness, Mean (DoHH2 tumor cells; CB17/SCID mice, subcutaneous DoHH2 tumors, 160 mg/kg (4 mg) intraperitoneally, tumors excised four hours later, MRE ex vivo, N=5): 21.82 kPa
stiffness change 4 hours after drug administration (ex vivo) (DoHH2 tumor cells; ex vivo mouse tumor studies, 4 hours after drug administration): stiffness increased
change in tumor stiffness measured by MRE versus saline (DoHH2 tumor cells; one-sided T-test between chemo and saline groups, p value 0.034, 4 hours after dosing): significant change in the tumor stiffness
change in stiffness from baseline at day 4 (DoHH2 cells; Tukey HSD test, p=0.02): significant change in stiffness
change in stiffness from baseline at day 3 (DoHH2 cells; Tukey HSD test, p=0.04): significant change in stiffness
change in tumor volume (DoHH2 cells; caliper and T2-weighted image measurements, baseline to day 4, p=0.59, no statistically significant change): remained the same or decreased slightly
average shear stiffness at day 4 (DoHH2 cells; in vivo MRE 800 Hz, 4 mg (160 mg/kg), day 4, N=8, baseline 9.885±1.74 kPa): 8.237±1.93 kPa
average decrease in shear stiffness from baseline to day 4 (DoHH2 cells; in vivo MRE, 4 mg (160 mg/kg), N=8): 1.649 kPa
change in stiffness in vivo before three days after injection (DoHH2 cells; time points before three days after injection): No changes in stiffness were observed

Source: patent US9750426B2, “System and method for assessing response to chemotherapy using magnetic resonance elastography” (MAYO FOUNDATION FOR MEDICAL EDUCATION AND RESEARCH, priority 2010, dated 2017)
